Earlier results on five compounds are cited in patent US7064136B2, “Compounds” (AstraZeneca AB, priority 2000, dated 2006).

Data set [1] concerns Neurokinin receptor. The settings on record: Marmoset human intruder; Walsh et al., Psychopharmacology 121:186-191, 1995.
In data set [2] the test system is Neurokinin receptor. The settings on record: Light-dark box.
The subject of data set [3] is Neurokinin receptor. The settings on record: Elevated plus-maze.
Data set [4] deals with Neurokinin receptor.
In data set [5] the test system is Neurokinin receptor. The settings on record: Forced swim test (depression model); anti-depressant (only at 30 mg/kb bid); Vassout et al Neuropeptides 26/S1:38, 1994.
[6] abbreviates: Walsh et al., Psychopharmacology 121:186-191, 1995.
Setting [7] is: Teixeira et al., Eur J Pharmacol 5;311(1):7-14, 1996.
[8] abbreviates: Stratton et al., Eur. J. Pharmacol. 250: R11-12, 1993.

Read-outs that look alike come from different tables or passages of the source. Non-standard residues stand in square brackets, D forms with d. Residues, ends and D or L forms follow the SMILES beside them. *: point of attachment. Cyclohexanecarbonyl = O=C(C1CCCCC1)*

For `COC1(C[S@@+]([O-])c2ccccc2)CCN(CCc2c[nH]c3ccc(F)cc23)CC1` [GR159897], the Outcome entry in data set [1] and in data set [2] (setting [6]) was “anxiolytic” in each case.
As for `CN(Cc1ccccc1)C(=O)[C@H](Cc1ccc2ccccc2c1)NC(=O)[C@@H]1C[C@@H](O)CN1C(=O)c1cn(C)c2ccccc12` [FK888], the Outcome result in data set [3] (setting [7]) was “anxiolytic”.
Regarding `CC(=O)NC1(c2ccccc2)CCN(CC[C@H](CN(C)C(=O)c2ccccc2)c2ccc(Cl)c(Cl)c2)CC1` [SR48968], the Outcome result in data set [3] (setting [7]), in data set [1], in data set [2] (setting [8]) and in data set [2] (setting [6]) was “anxiolytic” each time.
For `Cc1cc(C)cc(C(=O)N2CC[C@H](NCc3ccnc4ccccc34)C[C@H]2Cc2ccccc2)c1` [CGP 49823], the Outcome result is “inactive anti-” in data set [3] (Vassout et al Neuropeptides 26/S1:38, 1994); “anxiolytic” in data set [4] (Social interaction test, Vassout et al Neuropeptides 26/S1:38, 1994); “anxiolytic” in data set [4] (Social interaction, File Pharm Bio B 58(3):747-752, 1997); “depressant” in data set [5].
Turning to `C[C@H](NC(=O)CNC(=O)C1CCCCC1)C(=O)N[C@H](Cc1c[nH]c2ccccc12)C(=O)N[C@@H](Cc1ccccc1)C(=O)N(C)C` [GR100679] (Cyclohexanecarbonyl-GA[dW]F-NMe2), the Outcome result in data set [2] (setting [8]) is “anxiolytic”.
